Experimental data from the CheMixHub drug solubility set.

Test: xn = mol fraction of the nth substance listed, in the solute-free solvent

Nc1cc(-c2ccncc2)c[nH]c1=O + CCO + O
solubility (g/100 g solution)
Settings | 278.15 K | 283.15 K | 288.15 K | 293.15 K | 298.15 K | 303.15 K | 308.15 K | 313.15 K | 318.15 K | 323.15 K
x2 = 0.04165 | 0.00114 | 0.00134 | 0.00159 | 0.00187 | 0.00218 | 0.00251 | 0.00288 | 0.00327 | 0.00372 | 0.00424
x2 = 0.08908 | 0.00176 | 0.00207 | 0.00246 | 0.00288 | 0.00334 | 0.00384 | 0.0044 | 0.00498 | 0.00565 | 0.00642
x2 = 0.1436 | 0.00254 | 0.00304 | 0.00354 | 0.00413 | 0.00483 | 0.00549 | 0.00631 | 0.00722 | 0.00814 | 0.00941
x2 = 0.2068 | 0.00365 | 0.00427 | 0.00505 | 0.00593 | 0.00696 | 0.00785 | 0.009 | 0.0101 | 0.0116 | 0.0132
x2 = 0.2812 | 0.00514 | 0.00605 | 0.00709 | 0.0083 | 0.00956 | 0.0109 | 0.0125 | 0.014 | 0.0158 | 0.0179
x2 = 0.3698 | 0.0062 | 0.00747 | 0.00879 | 0.0103 | 0.0119 | 0.0137 | 0.0156 | 0.0178 | 0.0203 | 0.023
x2 = 0.4772 | 0.00811 | 0.00922 | 0.0108 | 0.0129 | 0.0146 | 0.0167 | 0.0193 | 0.0219 | 0.0247 | 0.0282
x2 = 0.6101 | 0.00938 | 0.0112 | 0.013 | 0.0153 | 0.0176 | 0.0202 | 0.0231 | 0.0259 | 0.029 | 0.033
x2 = 0.7788 | 0.0106 | 0.0125 | 0.0148 | 0.0174 | 0.0202 | 0.0229 | 0.026 | 0.0294 | 0.0329 | 0.0368

c1ccc2c(c1)CCc1ccccc1N2 + CS(C)=O + O
solubility (g/100 g solution)
Settings | x2 = 0.02506 | x2 = 0.0546 | x2 = 0.08995 | x2 = 0.1286 | x2 = 0.1882 | x2 = 0.2567 | x2 = 0.3485 | x2 = 0.4779 | x2 = 0.665
293.15 K | 0.237 | 2.56 | 6.27 | 6.04 | 5.43 | 5.01 | 4.74 | 5.59 | 6.04
298.15 K | 0.323 | 3.31 | 7.85 | 7.49 | 6.85 | 6.32 | 5.77 | 6.8 | 7.23
303.15 K | 0.412 | 4.04 | 9.35 | 8.95 | 8.16 | 7.51 | 6.86 | 8.1 | 8.7
308.15 K | 0.544 | 5.06 | 11.4 | 10.8 | 9.87 | 8.98 | 8.2 | 9.64 | 10.2
313.15 K | 0.69 | 6.11 | 13.3 | 12.7 | 11.6 | 10.5 | 9.62 | 11.2 | 11.7
318.15 K | 0.878 | 7.39 | 15.7 | 14.9 | 13.7 | 12.4 | 11.2 | 12.8 | 13.4
323.15 K | 1.11 | 8.88 | 18.2 | 17.2 | 15.8 | 14.3 | 13 | 14.6 | 15.1
328.15 K | 1.39 | 10.5 | 21 | 19.9 | 18.1 | 16.5 | 14.9 | 16.5 | 17.1

CC1=NNC(=O)N(N=Cc2cccnc2)C1 + C1COCCO1 + CC(C)O
solubility (g/100 g solution)
Settings | 288.15 K | 293.15 K | 298.15 K | 303.15 K | 308.15 K | 313.15 K | 318.15 K
x2 = 0.1457 | 0.106 | 0.125 | 0.147 | 0.169 | 0.197 | 0.227 | 0.261
x2 = 0.3126 | 0.11 | 0.127 | 0.149 | 0.173 | 0.2 | 0.229 | 0.263
x2 = 0.5057 | 0.113 | 0.132 | 0.154 | 0.176 | 0.202 | 0.233 | 0.268
x2 = 0.7318 | 0.116 | 0.135 | 0.156 | 0.179 | 0.206 | 0.235 | 0.27

CC1=NNC(=O)N(N=Cc2cccnc2)C1 + CS(C)=O + CC(C)O
solubility (g/100 g solution)
Settings | 293.15 K | 298.15 K | 303.15 K | 308.15 K | 313.15 K | 318.15 K
x2 = 0.1614 | 0.482 | 0.555 | 0.623 | 0.721 | 0.847 | 0.956
x2 = 0.3392 | 0.992 | 1.11 | 1.25 | 1.39 | 1.57 | 1.77
x2 = 0.5359 | 1.42 | 1.59 | 1.78 | 2.05 | 2.32 | 2.58
x2 = 0.7549 | 1.8 | 2.01 | 2.28 | 2.59 | 2.91 | 3.28

Nc1ncn(C2OC(CO)C(O)C2O)c(=O)n1 (stereo not given) + O + CO
solubility (g/100 g solution)
Settings | 278.15 K | 283.15 K | 288.15 K | 293.15 K | 298.15 K | 303.15 K | 308.15 K | 313.15 K | 318.15 K
x2 = 0.3077 | 0.0966 | 0.113 | 0.129 | 0.148 | 0.169 | 0.194 | 0.228 | 0.273 | 0.324
x2 = 0.5424 | 0.198 | 0.229 | 0.265 | 0.307 | 0.359 | 0.419 | 0.491 | 0.575 | 0.673
x2 = 0.7273 | 0.335 | 0.397 | 0.463 | 0.542 | 0.632 | 0.742 | 0.869 | 1 | 1.14
x2 = 0.8767 | 0.521 | 0.634 | 0.758 | 0.888 | 1.02 | 1.17 | 1.34 | 1.52 | 1.71

Nc1ncc(Br)nc1Br + CCO + O
solubility (g/100 g solution)
Settings | 278.15 K | 283.15 K | 288.15 K | 293.15 K | 298.15 K | 303.15 K | 308.15 K | 313.15 K | 318.15 K | 323.15 K
x2 = 0.04165 | 0.0211 | 0.0254 | 0.0296 | 0.0345 | 0.0394 | 0.044 | 0.0494 | 0.0552 | 0.0608 | 0.0668
x2 = 0.08908 | 0.0644 | 0.0768 | 0.0889 | 0.102 | 0.116 | 0.128 | 0.142 | 0.158 | 0.172 | 0.188
x2 = 0.1436 | 0.124 | 0.148 | 0.171 | 0.197 | 0.222 | 0.245 | 0.271 | 0.299 | 0.326 | 0.354
x2 = 0.2068 | 0.179 | 0.214 | 0.249 | 0.286 | 0.324 | 0.358 | 0.395 | 0.438 | 0.479 | 0.521
x2 = 0.2812 | 0.211 | 0.256 | 0.304 | 0.349 | 0.397 | 0.444 | 0.493 | 0.546 | 0.604 | 0.661
x2 = 0.3698 | 0.245 | 0.296 | 0.35 | 0.412 | 0.474 | 0.527 | 0.589 | 0.656 | 0.726 | 0.798
x2 = 0.4772 | 0.274 | 0.338 | 0.41 | 0.481 | 0.546 | 0.618 | 0.693 | 0.776 | 0.863 | 0.957
x2 = 0.6101 | 0.321 | 0.396 | 0.476 | 0.557 | 0.644 | 0.729 | 0.82 | 0.919 | 1.03 | 1.15
x2 = 0.7788 | 0.4 | 0.489 | 0.59 | 0.683 | 0.792 | 0.891 | 1 | 1.13 | 1.26 | 1.4

Nc1cc(-c2ccncc2)c[nH]c1=O + CN(C)C=O + O
solubility (g/100 g solution)
Settings | 278.15 K | 283.15 K | 288.15 K | 293.15 K | 298.15 K | 303.15 K | 308.15 K | 313.15 K | 318.15 K | 323.15 K
x2 = 0.02666 | 0.00203 | 0.00236 | 0.0028 | 0.00324 | 0.00375 | 0.00428 | 0.00488 | 0.00552 | 0.00624 | 0.00705
x2 = 0.05806 | 0.00422 | 0.00489 | 0.00574 | 0.00661 | 0.00759 | 0.00861 | 0.00975 | 0.011 | 0.0123 | 0.0139
x2 = 0.09556 | 0.00683 | 0.00794 | 0.00916 | 0.0106 | 0.0122 | 0.014 | 0.0156 | 0.0177 | 0.0198 | 0.0224
x2 = 0.1412 | 0.00979 | 0.0113 | 0.0131 | 0.015 | 0.0171 | 0.0195 | 0.0221 | 0.0248 | 0.0277 | 0.0316
x2 = 0.1978 | 0.0124 | 0.0143 | 0.0167 | 0.0193 | 0.022 | 0.0249 | 0.0283 | 0.0322 | 0.036 | 0.0407
x2 = 0.27 | 0.0152 | 0.0177 | 0.0208 | 0.0238 | 0.0272 | 0.0308 | 0.0348 | 0.0395 | 0.0442 | 0.0497
x2 = 0.3652 | 0.0161 | 0.0195 | 0.0231 | 0.0268 | 0.0307 | 0.035 | 0.0397 | 0.0451 | 0.0506 | 0.0572
x2 = 0.4965 | 0.0192 | 0.0227 | 0.0267 | 0.0306 | 0.035 | 0.0398 | 0.0452 | 0.0516 | 0.0579 | 0.0654
x2 = 0.6893 | 0.0186 | 0.0221 | 0.0258 | 0.0305 | 0.0349 | 0.0402 | 0.0458 | 0.0523 | 0.0593 | 0.0673

c1ccc2c(c1)CCc1ccccc1N2 + OCCO + O
solubility (g/100 g solution)
Settings | 283.15 K | 288.15 K | 293.15 K | 298.15 K | 303.15 K | 308.15 K | 313.15 K | 318.15 K | 323.15 K | 328.15 K
x2 = 0.03125 | 0.0117 | 0.0166 | 0.0228 | 0.032 | 0.0373 | 0.0524 | 0.0651 | 0.088 | 0.117 | 0.153
x2 = 0.06775 | 0.0425 | 0.0584 | 0.0728 | 0.0999 | 0.124 | 0.165 | 0.207 | 0.265 | 0.333 | 0.406
x2 = 0.1107 | 0.0709 | 0.0954 | 0.123 | 0.162 | 0.202 | 0.258 | 0.32 | 0.397 | 0.49 | 0.598
x2 = 0.1615 | 0.0799 | 0.106 | 0.135 | 0.174 | 0.214 | 0.272 | 0.331 | 0.404 | 0.491 | 0.593
x2 = 0.2258 | 0.0897 | 0.118 | 0.144 | 0.179 | 0.221 | 0.265 | 0.32 | 0.381 | 0.455 | 0.558
x2 = 0.3035 | 0.0971 | 0.123 | 0.148 | 0.178 | 0.215 | 0.256 | 0.304 | 0.359 | 0.421 | 0.515
x2 = 0.4027 | 0.107 | 0.131 | 0.154 | 0.184 | 0.223 | 0.261 | 0.313 | 0.359 | 0.402 | 0.47
x2 = 0.5389 | 0.114 | 0.14 | 0.166 | 0.197 | 0.232 | 0.272 | 0.308 | 0.353 | 0.401 | 0.458
x2 = 0.7239 | 0.117 | 0.139 | 0.167 | 0.197 | 0.231 | 0.263 | 0.296 | 0.329 | 0.366 | 0.411
